Measurements as given in patent US6620831B2, “Indazoles substituted with 1,1-dioxoisothiazolidine useful as inhibitors of cell proliferation” (LG Life Sciences Ltd., priority 2000, dated 2003).

Molecular target: T1, CDK2/cyclin A (Homo sapiens, UniProt P24941)
T1 construct: made in house; host or cells: insect ('worm') cells co-infected with baculoviruses
Experiment: CDK2 inhibitory activity (CDK2/cyclin A, [gamma-32P] ATP, histon H1 or Rb protein substrate)
Assay type: biochemical
Settings: first IC50 column (c1) of Table 1
From the text: CDK2 enzyme was obtained from either extract from the worm cell co-infected with baculovirus which expresses a CDK2 gene and baculovirus which expresses a cyclin A gene, or active enzyme purified therefrom. CDK4 was also obtained from either extract from the worm cell co-infected with baculovirus which expresses a CDK4 gene and baculovirus which expresses a cyclin D1 gene. As substrates, histon H1 or Rb protein was used for CDK2, and Rb protein for CDK4. The radioactive activities in substrates were determined by reacting compounds diluted with each concentration with a proper quantity of CDK2/cyclin A or CDK4/cyclin D1 and substrate protein, and [gamma-32P labeled] ATP, and then separating the substrates.
Inhibitory abilities of inhibitors according to the present invention for each enzyme activity were expressed as IC50 values, which were determined in accordance with the method as described above.

CCOc1ccc(CC(=O)Nc2n[nH]c3ccc(N4CCCS4(=O)=O)cc23)cc1S(=O)(=O)N1CCOCC1 [Compound 79, N-[5-(1,1-dioxo-1λ^6-isothiazolidin-2-yl)-1H-indazol-3-yl]-2-[4-ethoxy-3-(4-morpholinylsulfonyl)phenyl]acetamide] and CCOc1ccc(CC(=O)Nc2n[nH]c3ccc(N4CCCS4(=O)=O)cc23)cc1Cl [Compound 74, 2-(3-chloro-4-ethoxyphenyl)-N-[5-(1,1-dioxo-1λ^6-isothiazolidin-2-yl)-1H-indazol-3-yl]acetamide] cannot be ordered by IC50: less than 1000 nM for the first, less than 100 nM for the second.

CCOc1ccccc1N1CCN(CC(=O)Nc2n[nH]c3ccc(N4CCCS4(=O)=O)cc23)CC1 [Compound 52, N-[5-(1,1-dioxo-1λ^6-isothiazolidin-2-yl)-1H-indazol-3-yl]-2-[4-(2-ethoxyphenyl)-1-piperazinyl]acetamide] and CN1CCN(CC(=O)Nc2n[nH]c3ccc(N4CCCS4(=O)=O)cc23)CC1 [Compound 30, N-[5-(1,1-dioxo-1λ^6-isothiazolidin-2-yl)-1H-indazol-3-yl]-2-(4-methyl-1-piperazinyl)acetamide] cannot be ordered by IC50: less than 10000 nM for the first, less than 10000 nM for the second.

CCNc1cccc(CC(=O)Nc2n[nH]c3ccc(N4CCCS4(=O)=O)cc23)c1 [Compound 69, N-[5-(1,1-dioxo-1λ^6-isothiazolidin-2-yl)-1H-indazol-3-yl]-2-[3-(ethylamino)phenyl]acetamide] and Cc1cccc(CC(=O)Nc2n[nH]c3ccc(N4CCCS4(=O)=O)cc23)c1 [Compound 27, N-[5-(1,1-dioxo-1λ^6-isothiazolidin-2-yl)-1H-indazol-3-yl]-2-(3-methylphenyl)acetamide] cannot be ordered by IC50: less than 500 nM for the first, less than 50 nM for the second.

CCOc1ccc(CC(=O)Nc2n[nH]c3ccc(N4CCCS4(=O)=O)cc23)cc1[N+](=O)[O-] [Compound 67, N-[5-(1,1-dioxo-1λ^6-isothiazolidin-2-yl)-1H-indazol-3-yl]-2-(4-ethoxy-3-nitrophenyl)acetamide] and CCOc1cccc(CC(=O)Nc2n[nH]c3ccc(N4CCCS4(=O)=O)cc23)c1 [Compound 78, N-[5-(1,1-dioxo-1λ^6-isothiazolidin-2-yl)-1H-indazol-3-yl]-2-(3-ethoxyphenyl)acetamide] cannot be ordered by IC50: less than 50 nM for the first, less than 50 nM for the second.

Nc1cccc(CC(=O)Nc2n[nH]c3ccc(N4CCCS4(=O)=O)cc23)c1 [Compound 21, 2-(3-aminophenyl)-N-[5-(1,1-dioxo-1λ^6-isothiazolidin-2-yl)-1H-indazol-3-yl]acetamide] and O=C(Cc1cccc([N+](=O)[O-])c1)Nc1n[nH]c2ccc(N3CCCS3(=O)=O)cc12 [Compound 18, N-[5-(1,1-dioxo-1λ^6-isothiazolidin-2-yl)-1H-indazol-3-yl]-2-(3-nitrophenyl)acetamide] cannot be ordered by IC50: less than 50 nM for the first, less than 50 nM for the second.

CC(C)(C)OC(=O)Nc1nc(CC(=O)Nc2n[nH]c3ccc(N4CCCS4(=O)=O)cc23)cs1 [Compound 58, t-butyl 4-(2-[5-(1,1-dioxo-1λ^6-isothiazolidin-2-yl)-1H-indazol-3-yl]amino-2-oxoethyl)-1,3-thiazol-2-ylcarbamate] and Nc1nc(CC(=O)Nc2n[nH]c3ccc(N4CCCS4(=O)=O)cc23)cs1 [Compound 60, 2-(2-amino-1,3-thiazol-4-yl)-N-[5-(1,1-dioxo-1λ^6-isothiazolidin-2-yl)-1H-indazol-3-yl]acetamide] cannot be ordered by IC50: less than 100 nM for the first, less than 500 nM for the second.

O=C(Cc1csc(NCc2ccc(OCc3ccccc3)cc2)n1)Nc1n[nH]c2ccc(N3CCCS3(=O)=O)cc12 [Compound 77, 2-(2-[4-(benzyloxy)benzyl]amino-1,3-thiazol-4-yl)-N-[5-(1,1-dioxo-1λ^6-isothiazolidin-2-yl)-1H-indazol-3-yl]acetamide] and CCOc1ccc(CC(=O)Nc2n[nH]c3ccc(N4CCCS4(=O)=O)cc23)cc1 [Compound 42, N-[5-(1,1-dioxo-1λ^6-isothiazolidin-2-yl)-1H-indazol-3-yl]-2-(4-ethoxyphenyl)acetamide] cannot be ordered by IC50: less than 10000 nM for the first, less than 50 nM for the second.

O=C(Cc1ccc(N2CCOCC2)cc1)Nc1n[nH]c2ccc(N3CCCS3(=O)=O)cc12 [Compound 35, N-[5-(1,1-dioxo-1λ^6-isothiazolidin-2-yl)-1H-indazol-3-yl]-2-[4-(1-morpholinyl)phenyl]acetamide] and O=C(Cc1ccc(O)cc1)Nc1n[nH]c2ccc(N3CCCS3(=O)=O)cc12 [Compound 4, N-[5-(1,1-dioxo-1λ^6-isothiazolidin-2-yl)-1H-indazol-3-yl]-2-(4-hydroxyphenyl)acetamide] cannot be ordered by IC50: less than 100 nM for the first, less than 50 nM for the second.

O=S1(=O)CCCN1c1ccc2[nH]nc(NC(Cc3ccccc3)=NO)c2c1 [Compound 14, N-[5-(1,1-dioxo-1λ^6-isothiazolidin-2-yl)-1H-indazol-3-yl]-N′-hydroxy-2-phenylethaneimidoamide] and O=C(CCc1ccccc1)Nc1n[nH]c2ccc(N3CCCS3(=O)=O)cc12 [Compound 25, N-[5-(1,1-dioxo-1λ^6-isothiazolidin-2-yl)-1H-indazol-3-yl]-3-phenylpropanamide] cannot be ordered by IC50: less than 10000 nM for the first, less than 1000 nM for the second.

O=C(CN1CCCCC1)Nc1n[nH]c2ccc(N3CCCS3(=O)=O)cc12 [Compound 32, N-[5-(1,1-dioxo-1λ^6-isothiazolidin-2-yl)-1H-indazol-3-yl]-2-(1-piperidinyl)acetamide] and O=C(CN1CCOCC1)Nc1n[nH]c2ccc(N3CCCS3(=O)=O)cc12 [Compound 31, N-[5-(1,1-dioxo-1λ^6-isothiazolidin-2-yl)-1H-indazol-3-yl]-2-(4-morpholinyl)acetamide] cannot be ordered by IC50: less than 10000 nM for the first, less than 10000 nM for the second.

CN1CCN(S(=O)(=O)c2ccc(CC(=O)Nc3n[nH]c4ccc(N5CCCS5(=O)=O)cc34)cc2)CC1 [Compound 40, N-[5-(1,1-dioxo-1λ^6-isothiazolidin-2-yl)-1H-indazol-3-yl]-2-4-[(4-methyl-1-piperazinyl)sulfonyl]phenylacetamide] and CSc1ccc(CC(=O)Nc2n[nH]c3ccc(N4CCCS4(=O)=O)cc23)cc1 [Compound 20, N-[5-(1,1-dioxo-1λ^6-isothiazolidin-2-yl)-1H-indazol-3-yl]-2-[4-(methylsulfanil)phenyl]acetamide] cannot be ordered by IC50: less than 1000 nM for the first, less than 50 nM for the second.

O=C(CN1CCc2ccccc2C1)Nc1n[nH]c2ccc(N3CCCS3(=O)=O)cc12 [Compound 49, 2-[3,4-dihydro-2(1H)-isoquinolinyl]-N-[5-(1,1-dioxo-1λ^6-isothiazolidin-2-yl)-1H-indazol-3-yl]acetamide] and O=C(Cc1ccc(-c2ccco2)cc1)Nc1n[nH]c2ccc(N3CCCS3(=O)=O)cc12 [Compound 39, N-[5-(1,1-dioxo-1λ^6-isothiazolidin-2-yl)-1H-indazol-3-yl]-2-[4-(2-furyl)phenyl]acetamide] cannot be ordered by IC50: less than 1000 nM for the first, less than 50 nM for the second.

COc1cc(CC(=O)Nc2n[nH]c3ccc(N4CCCS4(=O)=O)cc23)cc(OC)c1 [Compound 71, 2-(3,5-dimethoxyphenyl)-N-[5-(1,1-dioxo-1λ^6-isothiazolidin-2-yl)-1H-indazol-3-yl]acetamide] and CC(=S)Nc1n[nH]c2ccc(N3CCCS3(=O)=O)cc12 [Compound 22, N-[5-(1,1-dioxo-1λ^6-isothiazolidin-2-yl)-1H-indazol-3-yl]ethanethioamide] cannot be ordered by IC50: less than 50 nM for the first, less than 50000 nM for the second.

CC(=NO)Nc1n[nH]c2ccc(N3CCCS3(=O)=O)cc12 [Compound 23, N-[5-(1,1-dioxo-1λ^6-isothiazolidin-2-yl)-1H-indazol-3-yl]-N′-hydroxyethaneimidoamide] gave an IC50 of less than 100000 nM.
